Laboratory results published in ChEMBL document CHEMBL1201862, “PubChem BioAssay data set” (2004).
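A five-concentration, 48-hour dose response in 96-well plates underlies each endpoint, interpolated linearly between surrounding concentrations. GI50 is the concentration that inhibits growth by half.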 Activity calls are given as the source filed them. No stated cut-off is given here; in the data, active = GI50 up to about 1.1 µM and inactive = higher.

How the values were obtained:
Experiment in all cases: DTP human tumour cell line panel, 48 h
[1] = system: 786-0
[2] = system: LOX IMVI
[3] = system: MOLT-4
[4] = system: NCI-H226
[5] = system: NCI-H522
[6] = system: OVCAR-3
[7] = system: SF-268
[8] = system: SN12C
[9] = system: SNB-75
[10] = system: SNB-78
[11] = system: U-251
[12] = system: UACC-257
[13] = system: UO-31
[14] = system: COLO 205
[15] = system: HOP-62
[16] = system: NCI-H460
[17] = system: OVCAR-4
[18] = system: SK-MEL-5
[19] = system: A498
[20] = system: MDA-N

Row | SMILES | GI50 [1] | GI50 [2] | GI50 [3] | GI50 [4] | GI50 [5] | GI50 [6] | GI50 [7] | GI50 [8] | GI50 [9] | GI50 [10] | GI50 [11] | GI50 [12] | GI50 [13] | GI50 [14] | GI50 [15] | GI50 [16] | GI50 [17] | GI50 [18] | GI50 [19] | GI50 [20]
1 | CCc1cccc(C(C)C)c1NC(=O)CCl | > 100 µM (inactive) | 80.7 µM (inactive) | > 100 µM (inactive) | > 100 µM (inactive) | 35.6 µM (inactive) | > 100 µM (inactive) | > 100 µM (inactive) | > 100 µM (inactive) | 37.5 µM (inactive) | > 100 µM (inactive) | 85.1 µM (inactive) | > 100 µM (inactive) | > 100 µM (inactive) |  |  |  |  |  |  | 
2 | CC(CCC[C@H](C)CO)[C@H]1[C@@H](O)C(O)C2[C@@H]3C[C@@H](O)C4(O)C[C@@H](O)CC[C@]4(C)C3CC[C@@]21C (some centres not stated) | > 100 µM (inactive) | > 100 µM (inactive) | > 100 µM (inactive) | > 100 µM (inactive) | > 100 µM (inactive) | > 100 µM (inactive) | > 100 µM (inactive) | > 100 µM (inactive) | > 100 µM (inactive) | > 100 µM (inactive) | > 100 µM (inactive) | > 100 µM (inactive) | > 100 µM (inactive) | > 100 µM (inactive) | > 100 µM (inactive) | > 100 µM (inactive) | > 100 µM (inactive) | > 100 µM (inactive) |  | 
3 | c1ccc(C(c2ccccc2)c2ccncc2)cc1 | > 100 µM (inactive) | > 100 µM (inactive) | > 100 µM (inactive) | > 100 µM (inactive) |  | > 100 µM (inactive) | > 100 µM (inactive) | > 100 µM (inactive) | 18 µM (inactive) | > 100 µM (inactive) | > 100 µM (inactive) | 61 µM (inactive) | 69.5 µM (inactive) | > 100 µM (inactive) | > 100 µM (inactive) | > 100 µM (inactive) | > 100 µM (inactive) | > 100 µM (inactive) | > 100 µM (inactive) | 
4 | CN(C)c1cccc(F)c1C(=O)NC(=O)Nc1ccc(Cl)cc1 | 2.98 µM (inactive) | 3.01 µM (inactive) | 1.62 µM (inactive) | 5.5 µM (inactive) | 2.27 µM (inactive) | 2.09 µM (inactive) | 12 µM (inactive) | 8.83 µM (inactive) | 2.4 µM (inactive) |  | 3.69 µM (inactive) | 3.42 µM (inactive) | 5.87 µM (inactive) | 2.21 µM (inactive) | 5.2 µM (inactive) | 1.91 µM (inactive) | > 43 µM (inactive) | 3.33 µM (inactive) | 11.5 µM (inactive) | 0.142 µM (active)
5 | CC(C)(C)c1ccc(OCCOCCOc2ccc(C(C)(C)C)cc2S(=O)(=O)Nc2ccc([N+](=O)[O-])cc2)c(S(=O)(=O)Nc2ccc([N+](=O)[O-])cc2)c1 | 45.6 µM (inactive) | 23.4 µM (inactive) | 3.01 µM (inactive) | 47.8 µM (inactive) |  | 7.43 µM (inactive) | 8.45 µM (inactive) | 7.19 µM (inactive) | 56.6 µM (inactive) | 15.2 µM (inactive) | 7.28 µM (inactive) | 42.1 µM (inactive) | 4.45 µM (inactive) | 21.8 µM (inactive) | 81.7 µM (inactive) | 8.85 µM (inactive) | 33.7 µM (inactive) | 6.17 µM (inactive) | 8.15 µM (inactive) | 
6 | CC(=O)OC12C(C)=C(C)C(=O)N1c1ccccc1N2C(C)=O (configuration not stated) | > 100 µM (inactive) | > 100 µM (inactive) | > 100 µM (inactive) | > 100 µM (inactive) | > 100 µM (inactive) | > 100 µM (inactive) | > 100 µM (inactive) |  | > 100 µM (inactive) | > 100 µM (inactive) | > 100 µM (inactive) | > 100 µM (inactive) | > 100 µM (inactive) | > 100 µM (inactive) | > 100 µM (inactive) | > 100 µM (inactive) | > 100 µM (inactive) | > 100 µM (inactive) |  | 
7 | CN(C)CCCN1c2ccc3ccccc3c2Sc2cccc(Cl)c21 | 2.99 µM (inactive) | 1.97 µM (inactive) | 2.14 µM (inactive) | 7.11 µM (inactive) | 2.61 µM (inactive) | 2.89 µM (inactive) | 5.69 µM (inactive) | 6.19 µM (inactive) | 3.6 µM (inactive) |  | 2.18 µM (inactive) | 1.69 µM (inactive) | 2.79 µM (inactive) | 1.85 µM (inactive) | 2.85 µM (inactive) | 1.77 µM (inactive) | 4.4 µM (inactive) | 3.83 µM (inactive) | 9.82 µM (inactive) | 2.38 µM (inactive)
8 | CCCCCCCCCC(=O)NC(CCC(=O)N(CCNC(=O)c1nc(-c2ccccc2)oc1-c1ccccc1)Cc1ccccc1)C(=O)O (configuration not stated) | 17.7 µM (inactive) | 18.6 µM (inactive) | 22.4 µM (inactive) | 23.8 µM (inactive) | 18.5 µM (inactive) | 16.3 µM (inactive) | 16.5 µM (inactive) | 18.7 µM (inactive) | 14.5 µM (inactive) |  | 18.9 µM (inactive) | 23.4 µM (inactive) | 15.2 µM (inactive) | 19.6 µM (inactive) | 16.4 µM (inactive) | 38.1 µM (inactive) | 20.5 µM (inactive) | 16.2 µM (inactive) | 21.2 µM (inactive) | 18.4 µM (inactive)
9 | C#C[C@]1(O)CC[C@H]2[C@@H]3CCC4=C/C(=N\OCCN5CCCC5)CC[C@]4(C)[C@H]3CC[C@@]21C | 7.11 µM (inactive) | 11.5 µM (inactive) | 6.14 µM (inactive) | 20.6 µM (inactive) | 3.57 µM (inactive) | 10.9 µM (inactive) | 13.5 µM (inactive) | 16.7 µM (inactive) | 10.8 µM (inactive) |  | 17.3 µM (inactive) | 8.13 µM (inactive) | 15.7 µM (inactive) | 13.7 µM (inactive) | 10.9 µM (inactive) | 17.7 µM (inactive) | 20.6 µM (inactive) | 3.67 µM (inactive) | 18.7 µM (inactive) | 3.25 µM (inactive)
10 | O=C(c1ccccc1)c1ccc(-n2c3ccccc3c3ccc4c(c32)C(=O)C=CC4=O)cc1 | 2.06 µM (inactive) | 3.41 µM (inactive) | 1.75 µM (inactive) | 23.3 µM (inactive) | 3.43 µM (inactive) | 7.59 µM (inactive) | 10.7 µM (inactive) | 9.08 µM (inactive) | 22.7 µM (inactive) |  | 14.7 µM (inactive) | 12.7 µM (inactive) | 2.74 µM (inactive) | 9.12 µM (inactive) | 16.4 µM (inactive) | 18.5 µM (inactive) | 16.3 µM (inactive) | 18.7 µM (inactive) | 12.2 µM (inactive) | 16.5 µM (inactive)
11 | c1ccc2c(c1)CCN(C1=NCCO1)C2 | > 10 µM (inactive) | > 10 µM (inactive) | > 10 µM (inactive) | > 10 µM (inactive) | > 10 µM (inactive) | > 10 µM (inactive) | > 10 µM (inactive) | > 10 µM (inactive) | > 10 µM (inactive) |  | > 10 µM (inactive) | > 10 µM (inactive) | > 10 µM (inactive) | > 10 µM (inactive) | > 10 µM (inactive) | > 10 µM (inactive) | > 10 µM (inactive) | > 10 µM (inactive) | > 10 µM (inactive) | > 10 µM (inactive)
12 | CCOC(=O)Cc1nc(/C(C#N)=C/c2ccco2)[nH]c(=O)c1C#N | > 100 µM (inactive) | > 100 µM (inactive) | > 100 µM (inactive) | > 100 µM (inactive) | 39.2 µM (inactive) | > 100 µM (inactive) |  | > 100 µM (inactive) | > 100 µM (inactive) | 37.8 µM (inactive) | > 100 µM (inactive) | > 100 µM (inactive) | > 100 µM (inactive) | 33.5 µM (inactive) | > 100 µM (inactive) | > 100 µM (inactive) | > 100 µM (inactive) | > 100 µM (inactive) |  | 
13 | C#CCn1c(=O)c(Cl)cn(/C(=C/C(=O)OCC)C(=O)OCC)c1=O | 1.98 µM (inactive) | 8.32 µM (inactive) | 2.28 µM (inactive) | > 43.1 µM (inactive) | 3.38 µM (inactive) | 3.48 µM (inactive) | 27.9 µM (inactive) | 22.4 µM (inactive) | 14.7 µM (inactive) |  | 17.7 µM (inactive) | 5.07 µM (inactive) | 3.4 µM (inactive) | 1.04 µM (active) | 20 µM (inactive) | 32.4 µM (inactive) | 17.2 µM (inactive) | 16.9 µM (inactive) | 22.9 µM (inactive) | 15.3 µM (inactive)
14 | Cc1ccc2nc3sc(=O)sc3nc2c1 [CHINOMETHIONAT] | 15.5 µM (inactive) | 15 µM (inactive) | 15.2 µM (inactive) | 14.3 µM (inactive) | 17.5 µM (inactive) | 14.5 µM (inactive) | 16.4 µM (inactive) | 15.5 µM (inactive) | 19.6 µM (inactive) |  | 17.1 µM (inactive) | 16.9 µM (inactive) | 15.4 µM (inactive) | 13.9 µM (inactive) | 16.6 µM (inactive) | 12.9 µM (inactive) | 13.7 µM (inactive) | 15.6 µM (inactive) | 7.48 µM (inactive) | 17.4 µM (inactive)
15 | CCOC(=O)C1=C(C)N(c2ccc(C)cc2)C2(O)C=CC(O)=C3C(=O)c4ccccc4C(=O)C312 (configuration not stated) | 33.9 µM (inactive) | 25.2 µM (inactive) | 0.374 µM (active) | 59.3 µM (inactive) | 16.1 µM (inactive) | 34.9 µM (inactive) | 45.2 µM (inactive) | 32.4 µM (inactive) | 24.1 µM (inactive) |  | 39.7 µM (inactive) | 22.9 µM (inactive) | 17.7 µM (inactive) | 32.4 µM (inactive) | > 100 µM (inactive) | 34.2 µM (inactive) | 25 µM (inactive) | 19.7 µM (inactive) | 29.4 µM (inactive) | 21.1 µM (inactive)
